Numbered stars: 1 amine (or outer) side, 2 acyl side, 3 side chain; on linkers, the order of the positions; unused ones are H or OH. Square brackets hold non-standard residues; d marks the D form. Ends that are not written are not given here. SAsp = aspartic acid substituted by -SH; βAsp = O=C(O)[C@H](CC(=O)[*:2])N[*:1]; β3hE = N[C@@H](CCC(=O)O)CC(=O)O; βAla = NCCC(=O)O
Legend:
HT-29 cells [1] = assay: In vitro recovery test: Pb detoxification of poisoned human cells, crystal violet; format: cell-based; details: for effect of the counter cation (Ca vs. Na salt) on detoxification activity: HT-29, FIG. 2d; for Recovery HT-29 (%): highest concentration 10 mM (5 equiv.), vs poisoned untreated cells, mean, SD
Description: (§1) Desalted peptides were then assessed for their ability to detoxify Pb (FIGS. 2a-d). The inventors designed two assays for rapid and reliable screening of potential CAs both in vivo on bacteria and then in vitro on human cell culture. Briefly, DH5a or HT-29 cells were first exposed to Pb(NO3)2 slightly below the minimal inhibitory concentration and then treated with various concentrations of the investigated CA, ranging from 0.1 to 10 equivalents. The viability of the cells was determined by colony counting or by crystal violet (Feoktistova et al, 2016), for the bacteria and the human cells, respectively, and was compared to poisoned cells that were not treated with any CA as the negative control. […] On the other hand, testing the compounds on human cells cannot be performed with insoluble compounds but is more relevant for medicinal purposes.
96-well plates were prepared such that every well contains 10,000 cells in 100 μL medium, and the cells were allowed to adhere overnight. To all wells but the positive control, 10 μL of 22 mM Pb(NO3)2 were added (final concentration 2 mM). 10 μL of H2O was added to the positive control wells. 60 min after addition of metal, 10 μL of each solution of the examined CA (2.4, 6, 12, 24, 48, and 120 mM) were added to reach final concentrations of 0.2, 0.5, 1, 2, 4, and 10 mM (which are 0.1, 0.25, 0.5, 1, 2, and 5 equivalents, respectively). To the positive control wells containing no metal and the negative control wells containing metal but no CA, 10 μL of H2O were added. Each condition was performed in triplicates. The plates were incubated at 37° C. and 5% CO2 for an additional 23 h, after which the medium was removed, washed with fresh medium and 50 μL of crystal violet solution (0.5% crystal violet powder in 20 mL MeOH and 80 mL H2O) to each well and the plates were gently shaken (60 rpm) for 20 min. The plates were then washed with H2O until no more unbound dye was observed and allowed to dry overnight. 200 μL of MeOH were added to each well, and the plates were gently shaken (60 rpm) for 20 min, after which their absorbance at 560 nm was read with a plate reader. The recovery of each concentration of CA was calculated according to equation 2:
(§2) A[CAx]—absorbance of the pre-toxified well in the presence of X mM of CA
(§3) A[blank]—absorbance of blank wells (contain nothing)
A[NEG]—absorbance of the pre-toxified well that contains no CA
(§4) Each experiment was performed on three independent occasions. Values are mean±SD of >3 repeats each performed in triplicate.

DH5α E. coli = assay: In vivo recovery test: Pb detoxification of poisoned bacteria, colony counting; format: cell-based; details: for Recovery DH5α (%): highest concentration 120 mM (10 equiv.), Pb(NO3)2 12 mM, vs poisoned untreated cells, mean; for detoxification ability in poisoned E. coli (in words): compared to the benchmark compounds, FIG. 2a
Description: as §1
HRMS (ESI) m/z calculated for C16H26N4O4SNa^+ [M+Na]^+ 427.14442; found: 427.14447 In vivo recovery tests A single colony of DH5a E. coli WT cells was grown overnight at 37° C. and 220 rpm in Tris Minimal Medium (TMM, pH 6.0; 5 mL) without antibiotics. The culture was then diluted to an OD600 of 0.03 with additional TMM to a total volume of 5 mL, and its OD600 was monitored. Upon cell density of 0.25 (which was achieved after 3-5 h), 1 mL of the culture was transferred into a cell culture tube and was labeled as the positive control. To additional 3 mL of the culture, 36 μL of Pb(NO3)2 1 M were added (final concentration of 12 mM). Both cultures were shaken at 37° C. and 220 rpm for an additional 5 h.
Aqueous stock solutions of each CA were plated on freshly prepared agar-LB plates such that the final concentration of each compound is equal to 0.5, 1, 2, 5, and 10 equivalents, compared to the amount of Pb(NO3)2 in 50 μL pre-toxified culture. The stock solutions were prepared such that plating and equally spreading 30 μL of each solution will provide the desired amount of CA. To additional two plates, 30 μL of H2O was added.
50 μL of the pre-toxified culture were homogenously spread to each CA-containing plate, 5 h after adding the metal to the culture. The Pb-containing culture was also plated on one of the two H2O-containing plates and was labeled as the negative control. Lastly, 50 μL of the non-toxified culture were platted on the second H2O-containing plate and was labeled as positive control. All plates (positive and negative control and five plates for each examined compound) were then incubated at 37° C. overnight. The plates were then imaged, and the colonies were counted (with Vilber Quantum Visualization System). The recovery of each concentration of CA was calculated according to equation 1: […]
#CAx—number of colonies of pre-toxified culture in a plate containing X mM of CA
#NEG—number of colonies of pre-toxified culture in a plate containing no CA
as §4

HT-29 cells [2] = assay: In vitro toxicity test, crystal violet; format: cell-based, human; details: HT-29, 24 h; for IC50: concentration at 50% viability, mean (SD), n.d. = not detected as it is too high
Description: 96-well plates were prepared such that every well contains 10,000 cells in 100 μL medium, and the cells were allowed to adhere overnight.
To all wells but the positive control, 10 μL of each solution of the examined CA (2.4, 6, 12, 24, 48, and 120 mM) were added to reach final concentrations of 0.2, 0.5, 1, 2, 4, and 10 mM. To the positive control wells, 10 μL of H2O was added. Each condition was performed in triplicates. The plates were incubated at 37° C. and 5% CO2 for 24 h, after which the medium was removed, washed with fresh medium and 50 μL of crystal violet solution (0.5% crystal violet powder in 20 mL MeOH and 80 mL H2O) to each well and the plates were gently shaken (60 rpm) for 20 min. The plates were then washed with H2O until no more unbound dye was observed and allowed to dry overnight. 200 μL of MeOH were added to each well, and the plates were gently shaken (60 rpm) for 20 min, after which their absorbance at 560 nm was read with a plate reader. The toxicity of each concentration of CA was calculated according to equation 3:
as §2, §3
A[POS]—absorbance of well that contains no CA
as §4

[3] = Aqueous solubility of the peptides; format: physicochemical
Description: Attempts to solubilize them, including in different pH conditions, formulation with PEG or co-solvent systems with DMSO failed. Therefore, two analogs of 1 where βAla is substituted by PAsp or PhGlu, to form peptides 1a and 1b, respectively, were synthesized. […] Their low activity might be related to either (a) competition in coordination with Pb^2+ by the two carboxylates, which destabilizes the complexation, or (b) a decrease in their metal selectivity and coordination alkali or alkaline earth metal ions.

male mice (C57BL/6) = assay: Pb-poisoned mice: blood lead level and urinary Pb by ICP-MS; format: in vivo; details: for BLL / Urinary Pb (ppm): 30 mg kg^−1 day^−1, days 10-16; for BLL: blood on day 18, eight mice; for Urinary Pb (ppm): urine on day 18
Description: Peptide 8a was then tested in mice. 40 male mice (C57BL/6) aged 6-8 weeks were provided with 20 mM Pb(OAc)2 solution as the sole water supply for seven days (days 1-7). This poisoning route mimics chronic exposure in humans. Two days after returning to clean water (day 9), they were randomly divided into five groups of eight mice. They received a single treatment per day for seven days (days 10-16) of either CaNa2EDTA, DMSA, or 8a at a concentration of 30 mg kg^−1 except for group 1 that served as the negative control (Table 3).
Blood samples (100 μL) were collected before dosing the mice on days 10-15 and on day 18, which is two days after the last dosing and the day by which the experiment was terminated. Urine was also collected from 34 animals on day 18 and was kept frozen until analysis.

[4] = inhibition at the highest concentration (10 mM), mean, SD
[5] = also different pH, PEG formulation, DMSO co-solvent failed
[6] = soluble^b = with the addition of 2 equiv. NaOH or 1 equiv. of Ca(OH)2

Row | Compound | Recovery HT-29 (%) (HT-29 cells [1]; Pb(NO3)2 2 mM) | Recovery DH5α (%) (DH5α E. coli) | Toxicity Maximal inhibition (%) (HT-29 cells [2]; [4]) | detoxification ability in poisoned E. coli (in words) (DH5α E. coli) | Aqueous solubility [3, 6] | other results
1 | O=C(O)CN(CCN(CC(=O)O)CC(=O)O)CC(=O)O [EDTA, ethylenediaminetetraacetic acid] | – | – | – | – | – | effect of the counter cation (Ca vs. Na salt) on detoxification activity (HT-29 cells [1]): higher activity as a Ca-salt
2 | N[C@@H](CCC(=O)N[C@@H](CS)C(=O)NCC(=O)O)C(=O)O [GSH, glutathione] | 126 | 39 | – | – | – | IC50 (HT-29 cells [2]; Homo sapiens): 9.6 mM; inhibition at 10000 µM (HT-29 cells [2]; Homo sapiens, inhibition at the highest concentration (10 mM), mean, SD, read-out: Toxicity Maximal inhibition (%)): 57%
3 | O=C([O-])CN(CCN(CC(=O)[O-])CC(=O)O)CC(=O)O.[Na+].[Na+] [Na2EDTA] | 41 | 107 | 72 | – | – | IC50 (HT-29 cells [2]): 0.6 mM
4 | O=C1CCNC(=O)[C@H](CS)NC(=O)CCNC(=O)[C@H](CS)N1 [compound 1, Cys-βAla-Cys-βAla] | – | – | – | outstanding results | insoluble | increase of recovery of poisoned E. coli (DH5α E. coli; DH5α, treatment after Pb(NO3)2): more than 8 fold; Aqueous solubility [3, 5]: low aqueous solubility
5 | CSCC[C@@H]1NC(=O)CCNC(=O)[C@H](CCSC)NC(=O)CCNC1=O [compound 3, Met-βAla-Met-βAla] | – | 139 | – | – | insoluble | –
6 | O=C1CCNC(=O)[C@H](Cc2c[nH]cn2)NC(=O)CCNC(=O)[C@H](Cc2c[nH]cn2)N1 [compound 4, His-βAla-His-βAla] | 106 | 80 | 62 | – | Soluble | IC50 (HT-29 cells [2]): 5.8 mM
7 | O=C(O)C[C@@H]1NC(=O)CCNC(=O)[C@H](CC(=O)O)NC(=O)CCNC1=O [compound 5, Asp-βAla-Asp-βAla] | 121 | 150 | 44 | – | soluble^b | –
8 | CSCC[C@@H]1NC(=O)CCNC(=O)[C@H](CS)NC(=O)CCNC1=O [compound 6, Cys-βAla-Met-βAla] | – | – | – | outstanding results | insoluble | Aqueous solubility [3, 5]: low aqueous solubility
9 | O=C1CCNC(=O)[C@H](Cc2c[nH]cn2)NC(=O)CCNC(=O)[C@H](CS)N1 [compound 7, Cys-βAla-His-βAla] | – | 47 | – | – | insoluble | –
10 | O=C1CCNC(=O)[C@H](Cc2ccccc2)NC(=O)CCNC(=O)[C@H](CS)N1 [compound 9, Cys-βAla-Phe-βAla] | – | 180 | – | – | insoluble | –
11 | O=C1CCNC(=O)[C@@H](CS)NC(=O)CCNC(=O)[C@H](CS)N1 [peptide 2, Cys-βAla-DCys-βAla] | – | – | – | outstanding results | insoluble | Aqueous solubility [3, 5]: low aqueous solubility
12 | C[βAsp]C[βAsp] (cysteine pairing not given here) [1a] | 106 | 2 | 0 | unsatisfied | soluble^b | solubility as Na or Ca salts [3]: high solubility
13 | [Cys-βhGlu]2 (C[β3hE]C[β3hE]; not fully specified (bridges); printed as [Cys-βhGlu]2; also: cyclic, ring type not given here) [1b, cyclic tetrapeptide] | – | 30 | – | unsatisfied | soluble^b | solubility as Na or Ca salts [3]: high solubility
14 | cyc-[SAsp-βAla-Asp-βAla] (cyclo([SAsp][βAla]D[βAla])) [8a] | – | – | – | – | – | dose-dependent recovery of HT-29 cells (in words) (HT-29 cells [1]; Pb(NO3)2 2 mM, CA added 1 h later, vs all investigated peptides and standards of care, FIG. 4): best results; removal of Pb in urine compared with the SOCs (male mice (C57BL/6); IV and oral, vs CaNa2EDTA and DMSA, day 18): 1.3-2.2 folds; BLL (male mice (C57BL/6); IV): 16.0 ± 1.5 µg/dL; Urinary Pb (ppm) (male mice (C57BL/6); IV): 452 ± 47 ppm; Pb expelled in urine compared with the untreated group (male mice (C57BL/6); IV, day 18): 2.9 folds; reduction of average BLL compared to no treatment (male mice (C57BL/6); IV, day 18): 2.1 folds; reduction of average BLL compared with CaNa2EDTA (male mice (C57BL/6); IV, day 18): 1.6 folds; BLL (male mice (C57BL/6); Oral): 17.7 ± 1.3 µg/dL; Urinary Pb (ppm) (male mice (C57BL/6); Oral): 435 ± 28 ppm; Pb expelled in urine compared with the untreated group (male mice (C57BL/6); oral, day 18): 2.8 folds; reduction of BLL compared with DMSA (male mice (C57BL/6); oral, day 18): 1.3 folds; reduction of BLL compared with no treatment (male mice (C57BL/6); oral, day 18): 1.9 folds
15 | cyc[Cys-βAla-Asp-βAla] [peptide 8] | – | 279 | 15±5 | outstanding results | soluble^b | effect of the counter cation (Ca vs. Na salt) on detoxification activity (HT-29 cells [1]): barely affected by the counter cation
